The test system of assay [1] is isolated guinea pig ileum. The class given is cell-based. Also on record: pA2 /GPI: activity class: scale not given here. The settings on record: isolated guinea pig ileum; for pA2 /GPI: activity class: not quantitated. The protocol: The bradykinin antagonists were assayed on isolated rat uterus in natural or induced estrus and on guinea pig ileum, according to the commonly accepted assay methods for bradykinin and related kinins as described by Trautschold (Handbook of Expt. Pharmacol. Vol 25, Springer Verlag, pp. 53-55, 1970) for inhibition of the myotropic activity of bradykinin. The inhibition potencies, as determined according to the commonly accepted manner described by Schild for antagonists of biologically active compounds (Br. J. Pharmacol. 2:189, 1947), and expressed as pA2 values are determined on isolated rat uterus (RUT) and isolated guinea pig ileum (GPI). In the assays, a dose-response curve is determined for the reference substance bradykinin. The dose of bradykinin which produced a half maximal contraction of tissue is the ED50 dose. An amount of bradykinin equivalent to twice the ED50 dose is administered to the tissue 30 seconds after the start of incubation of the tissue with a dose of antagonist. Doses of antagonist are increased in this protocol until pre-incubation with a dose of antagonist reduces the contraction in response to the double ED50 dose of bradykinin to response of a single ED50 dose of bradykinin. The pA2 value represents the negative logarithm of the molar concentration of antagonist necessary to reduce the response of a double ED50 dose of bradykinin to that of an ED50 dose. One unit of pA2 value represents an order of magnitude change in potency. For comparison, the negative log of the dose of BK, the dose which causes half maximal contraction of the tissues, is commonly known as the pD2 value. The pD2 value for bradykinin is 7.9 on the rat uterus and 7.4 on the guinea pig ileum.

The subject of another assay is isolated rat uterus. The class given is cell-based. The settings on record: for pA2 /RUT: activity class: not quantitated. The method, boiled down: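 Antagonism of bradykinin-induced contraction in isolated rat uterus (natural or induced estrus) and guinea pig ileum. Antagonist preincubated 30 s before a double-ED50 bradykinin dose, with the dose raised until the response fell to that of a single ED50. pA2 is the negative log molar antagonist concentration achieving this (Schild method).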

Each structure is given as a SMILES string. Where two headings read alike, the source gives them in different places. Square brackets hold non-standard residues; d marks the D form. Peptide text beside a SMILES is read from it. dPhe(4-Cl) = N[C@H](Cc1ccc(Cl)cc1)C(=O)O; d2Nal = N[C@H](Cc1ccc2ccccc2c1)C(=O)O; Hyp = O=C(O)[C@@H]1C[C@@H](O)CN1; 2Thi = N[C@@H](Cc1cccs1)C(=O)O; d2Thi = N[C@H](Cc1cccs1)C(=O)O

Regarding `N=C(N)NCCC[C@@H](N)C(=O)N[C@H](Cc1ccc2ccccc2c1)C(=O)N1CCC[C@H]1C(=O)N1C[C@H](O)C[C@H]1C(=O)NCC(=O)N[C@@H](Cc1ccccc1)C(=O)N[C@@H](CO)C(=O)N[C@H](Cc1cccs1)C(=O)N[C@@H](Cc1ccccc1)C(=O)N[C@@H](CCCNC(=N)N)C(=O)O` [Example 40, DArg-DNal-Pro-Hyp-Gly-Phe-Ser-DThi-Phe-Arg] (H-[dR][d2Nal]P[Hyp]GFS[d2Thi]FR-OH), the “pA2 /GPI: activity class” value in assay [1] came to 0. The “pA2 /RUT (antagonist potency)” value in the assay on isolated rat uterus was 5.6.

Turning to `N=C(N)NCCC[C@@H](N)C(=O)N1CCC[C@H]1C(=O)N1C[C@H](O)C[C@H]1C(=O)NCC(=O)N[C@@H](Cc1cccs1)C(=O)N[C@@H](CO)C(=O)N[C@H](Cc1ccccc1)C(=O)N[C@@H](Cc1cccs1)C(=O)N[C@@H](CCCNC(=N)N)C(=O)O` [Example 8, DArg-Pro-Hyp-Gly-Thi-Ser-DPhe-Thi-Arg] (H-[dR]P[Hyp]G[2Thi]S[dF][2Thi]R-OH), in assay [1] (number of tissues in parentheses), the “pA2 /GPI (antagonist potency)” value turned out to be 5.4. The “pA2 /RUT (antagonist potency)” value in the assay with isolated rat uterus is listed as 5.4.

Consider `N=C(N)NCCC[C@@H](N)C(=O)N[C@H](Cc1ccc(Cl)cc1)C(=O)N1CCC[C@H]1C(=O)N1CCC[C@H]1C(=O)NCC(=O)N[C@@H](Cc1ccccc1)C(=O)N[C@@H](CO)C(=O)N[C@H](Cc1ccccc1)C(=O)N[C@@H](Cc1ccccc1)C(=O)N[C@@H](CCCNC(=N)N)C(=O)O` [Example 4, DArg-CDF-Pro-Pro-Gly-Phe-Ser-DPhe-Phe-Arg] (H-[dR][dPhe(4-Cl)]PPGFS[dF]FR-OH), for which, in assay [1], the “pA2 /GPI: activity class” value is recorded as 0. In addition, in the assay with isolated rat uterus (isolated rat uterus, number of tissues in parentheses), the “pA2 /RUT (antagonist potency)” value was 5.4.

In the case of `CC(=O)N[C@@H](CCCNC(=N)N)C(=O)N1CCC[C@H]1C(=O)N1CCC[C@H]1C(=O)NCC(=O)N[C@@H](Cc1cccs1)C(=O)N[C@@H](CO)C(=O)N[C@H](Cc1ccccc1)C(=O)N[C@@H](Cc1cccs1)C(=O)N[C@@H](CCCNC(=N)N)C(N)=O` [Example 52, Ac-Arg-Pro-Pro-Gly-Thi-Ser-DPhe-Thi-Arg-NH2] (Ac-RPPG[2Thi]S[dF][2Thi]R-NH2), in assay [1], the “pA2 /GPI: activity class” value is on record as 0. In the assay with isolated rat uterus (isolated rat uterus), the “pA2 /RUT: activity class” value came out at 0.

Turning to `N=C(N)NCCC[C@H](NC(=O)[C@H](Cc1cccs1)NC(=O)[C@@H](Cc1ccccc1)NC(=O)[C@H](CO)NC(=O)[C@H](Cc1cccs1)NC(=O)CNC(=O)[C@@H]1C[C@@H](O)CN1C(=O)[C@@H]1C[C@@H](O)CN1C(=O)[C@@H](Cc1ccc2ccccc2c1)NC(=O)[C@H](CCCCN)NC(=O)[C@@H](N)CCCCN)C(=O)O` [Example 28, Lys-Lys-DNal-Hyp-Hyp-Gly-Thi-Ser-DPhe-Thi-Arg] (H-KK[d2Nal][Hyp][Hyp]G[2Thi]S[dF][2Thi]R-OH), the “pA2 /GPI: activity class” value in assay [1] is on record as 0. For the same compound, in the assay on isolated rat uterus (isolated rat uterus), the “pA2 /RUT: activity class” value is 0.

Take `N=C(N)NCCC[C@@H](N)C(=O)N[C@H](Cc1ccc2ccccc2c1)C(=O)N1CCC[C@H]1C(=O)N1C[C@H](O)C[C@H]1C(=O)NCC(=O)N[C@@H](Cc1ccccc1)C(=O)N[C@@H](CO)C(=O)N[C@H](Cc1ccccc1)C(=O)N[C@@H](Cc1ccccc1)C(=O)N[C@@H](CCCNC(=N)N)C(=O)O` [Example 32, DArg-DNal-Pro-Hyp-Gly-Phe-Ser-DPhe-Phe-Arg] (H-[dR][d2Nal]P[Hyp]GFS[dF]FR-OH): in assay [1], the “pA2 /GPI: activity class” value was 0. The “pA2 /RUT (antagonist potency)” value with isolated rat uterus was determined as 5.9.

On to `N=C(N)NCCC[C@H](NC(=O)[C@H](Cc1cccs1)NC(=O)[C@@H](Cc1ccccc1)NC(=O)[C@H](CO)NC(=O)[C@H](Cc1cccs1)NC(=O)CNC(=O)[C@@H]1CCCN1C(=O)[C@@H]1CCCN1C(=O)[C@H](N)Cc1ccccc1)C(=O)O` [Example 19, DPhe-Pro-Pro-Gly-Thi-Ser-DPhe-Thi-Arg] (H-[dF]PPG[2Thi]S[dF][2Thi]R-OH), for which, in assay [1], the “pA2 /GPI: activity class” value amounted to 0. In the assay on isolated rat uterus (isolated rat uterus), the “pA2 /RUT: activity class” value is 0.
